SMILES strings stand for the structures.

The target of one assay is T1, human GPR52 (Homo sapiens, UniProt Q9Y2T5).
T1 construct: expressed in transfected cells; host or cells: CHO(dhfr-) cells
T1 sequence (Q9Y2T5 whole entry): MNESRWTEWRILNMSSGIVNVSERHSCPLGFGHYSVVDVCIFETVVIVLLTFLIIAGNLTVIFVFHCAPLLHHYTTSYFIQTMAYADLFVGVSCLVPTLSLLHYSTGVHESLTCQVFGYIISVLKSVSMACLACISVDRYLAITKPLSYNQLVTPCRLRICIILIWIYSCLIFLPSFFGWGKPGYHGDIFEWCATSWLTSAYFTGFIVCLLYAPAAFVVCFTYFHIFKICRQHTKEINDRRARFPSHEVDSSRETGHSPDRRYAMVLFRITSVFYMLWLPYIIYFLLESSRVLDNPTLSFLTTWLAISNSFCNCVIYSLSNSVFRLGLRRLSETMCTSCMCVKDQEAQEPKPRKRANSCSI
Put plainly: Increase of intracellular cAMP concentration in human GPR52-expressing CHO cell (AlphaScreen cAMP assay). In kind it is cell-based. The settings on record: CHO, 1µM test compound; 100% = cAMP with 1 µM Reference Example 79, 0% = DMSO; human GPR52-expressing CHO(dhfr-) cells, 37°C, 30 min; read-out: GPR52 agonist activity (%). The protocol:
Increase of intracellular cAMP concentration in human GPR52-expressing CHO cell
Using OptiPlate-384 (PerkinElmer Inc.), 1×10^4 human GPR52-expressing CHO(dhfr-) cells were incubated together with various concentration(10^-5µM - 10µm) of a test compound in an assay buffer (30 µL, HBSS (containing Ca^2+ and Mg^2+), 0.5% BSA, 100 µM IBMX, 100 µM Ro20-1724, 5 mM HEPES (pH 7.55)) at 37°C for 30 min. Thereafter, according to the protocol of AlphaScreen CAMP Assay Kit (PerkinElmer Inc.), the intracellular cAMP concentration was measured by EnVision (PerkinElmer Inc.). The GPR52 agonist activity was calculated, assuming the intracellular cAMP concentration in the presence of […] N-(2-hydroxyethyl)-3-[2-[3-(trifluoromethyl)benzyl]-1-benzofuran-4-yl]benzamide (Reference Example 79) to be 100% and assuming the intracellular cAMP concentration when DMSO was added instead of the test compound to be 0%.
For `Cc1c(C(N)=O)c(CO)nn1-c1cccc2cc(Cc3cccc(C(F)(F)F)c3)sc12` [Example 69, 3-(hydroxymethyl)-5-methyl-1-[2-[3-(trifluoromethyl)benzyl]-1-benzothiophen-7-yl]-1H-pyrazole-4-carboxamide], the activity at 1 µM worked out at 78%. `Cc1nc(-c2cccc3oc(Cc4cccc(C(F)(F)F)c4)cc23)sc1C(=O)NCCO` [Example 46, N-(2-hydroxyethyl)-4-methyl-2-[2-[3-(trifluoromethyl)benzyl]-1-benzofuran-4-yl]-1,3-thiazole-5-carboxamide]: the activity at 1 µM was determined as 90%.

For `NC(=O)CNC(=O)c1cn(-c2cccc3cc(Cc4cccc(C(F)(F)F)c4)sc23)nc1C(F)(F)F` [Example 21, N-(2-amino-2-oxoethyl)-3-(trifluoromethyl)-1-[2-[3-(trifluoromethyl)benzyl]-1-benzothiophen-7-yl]-1H-pyrazole-4-carboxamide], the activity at 1 µM was determined as 94%. Same read-out and setting: the value for `CC(C)c1nn(-c2cccc3cc(Cc4cccc(C(F)(F)F)c4)sc23)cc1C(=O)NCCO` [Example 26, N-(2-hydroxyethyl)-3-(1-methylethyl)-1-[2-[3-(trifluoromethyl)benzyl]-1-benzothiophen-7-yl]-1H-pyrazole-4-carboxamide] was 96%; that for `Cc1nn(-c2ccc(F)c3cc(Cc4cccc(C(F)(F)F)c4)sc23)c(C)c1C(=O)NCCO` [Example 62, 1-[4-fluoro-2-[3-(trifluoromethyl)benzyl]-1-benzothiophen-7-yl]-N-(2-hydroxyethyl)-3,5-dimethyl-1H-pyrazole-4-carboxamide] was 105%. On the same count and under the same terms, the value for `Cn1nc(-c2cccc3cc(Cc4cccc(C(F)(F)F)c4)sc23)cc1C(=O)NCCO` [Example 111, N-(2-hydroxyethyl)-1-methyl-3-[2-[3-(trifluoromethyl)benzyl]-1-benzathiophen-7-yl]-1H-pyrazole-5-carboxamide] was 89%. In the case of `Cc1nc(-c2cccc3cc(Cc4cccc(C(F)(F)F)c4)sc23)sc1C(=O)NCC(N)=O` [Example 37, N-(2-amino-2-oxoethyl)-4-methyl-2-[2-[3-(trifluoromethyl)benzyl]-1-benzothiophen-7-yl]-1,3-thiazole-5-carboxamide], the activity at 1 µM came out at 97%. The same measure, in the same setting: in the case of `Cc1cn(-c2cccc3cc(Cc4cccc(C(F)(F)F)c4)sc23)nc1C(=O)NCC(N)=O` [Example 30, N-(2-amino-2-oxoethyl)-4-methyl-1-[2-[3-(trifluoromethyl)benzyl]-1-benzothiophen-7-yl]-1H-pyrazole-3-carboxamide] it was 96%; in that of `O=C(NCCO)c1sc(-c2cccc3nn(Cc4cccc(C(F)(F)F)c4)cc23)nc1C(F)(F)F` [Example 88, N-(2-hydroxyethyl)-4-(trifluoromethyl)-2-[2-[3-(trifluoromethyl)benzyl]-2H-indazol-4-yl]-1,3-thiazole-5-carboxamide], 83%. The same measure, in the same setting: in the case of `Cc1cccc(Cc2cc3cccc(-n4nc(C)c(C(=O)NCCO)c4C)c3s2)c1` [Example 94, N-(2-hydroxyethyl)-3,5-dimethyl-1-[2-(3-methylbenzyl)-1-benzothiophen-7-yl]-1H-pyrazole-4-carboxamide] it was 96%; in that of `Cc1nn(-c2cccc3sc(Cc4cc(F)cc(Cl)c4)cc23)c(C)c1C(=O)NCC(N)=O` [Example 107, N-(2-amino-2-oxoethyl)-1-[2-(3-chloro-5-fluorobenzyl)-1-benzothiophen-4-yl]-3,5-dimethyl-1H-pyrazole-4-carboxamide], 100%. On the same count and under the same terms, the value for `CNC(=O)c1c(C)nn(-c2ccc(F)c3cc(Cc4cccc(C(F)(F)F)c4)sc23)c1C` [Example 102, 1-[4-fluoro-2-[3-(trifluoromethyl)benzyl]-1-benzothiophen-7-yl]-N,3,5-trimethyl-1H-pyrazole-4-carboxamide] was 99%. As to `Cc1nn(-c2cccc3oc(Cc4cccc(C(F)(F)F)c4)cc23)c(C)c1C(=O)NCCO` [Example 75, N-(2-hydroxyethyl)-3,5-dimethyl-1-[2-[3-(trifluoromethyl)benzyl]-1-benzofuran-4-yl]-1H-pyrazole-4-carboxamide], the activity at 1 µM was 101%.

On to `COCCNC(=O)c1c(C)nn(-c2cccc3cc(Cc4cc(F)cc(Cl)c4)sc23)c1C` [Example 57, 1-[2-(3-chloro-5-fluorobenzyl)-1-benzothiophen-7-yl]-N-(2-methoxyethyl)-3,5-dimethyl-1H-pyrazole-4-carboxamide], for which the activity at 1 µM was 96%. In the case of `Cc1nc(-c2cccc3cc(Cc4cccc(C(F)(F)F)c4)sc23)n(C)c1C(N)=O` [Example 48, 1,4-dimethyl-2-[2-[3-(trifluoromethyl)benzyl]-1-benzothiophen-7-yl]-1H-imidazole-5-carboxamide], the activity at 1 µM was determined as 89%. In the case of `Cc1nn(-c2ccc(F)c3cc(Cc4cccc(C(F)(F)F)c4)sc23)c(CO)c1C(=O)NCCO` [Example 71, 1-[4-fluoro-2-[3-(trifluoromethyl)benzyl]-1-benzothiophen-7-yl]-N-(2-hydroxyethyl)-5-(hydroxymethyl)-3-methyl-1H-pyrazole-4-carboxamide], the activity at 1 µM worked out at 114%. For `Cc1nn(-c2ccc(F)c3cc(Cc4cccc(C(F)(F)F)c4)sc23)c(C)c1C(N)=O` [Example 61, 1-[4-fluoro-2-[3-(trifluoromethyl)benzyl]-1-benzothiophen-7-yl]-3,5-dimethyl-1H-pyrazole-4-carboxamide], the activity at 1 µM is 93%. On the same count and under the same terms, in the case of `COCc1c(C(=O)NCCO)c(C)nn1-c1cccc2cc(Cc3cccc(C(F)(F)F)c3)sc12` [Example 70, N-(2-hydroxyethyl)-5-(methoxymethyl)-3-methyl-1-[2-[3-(trifluoromethyl)benzyl]-1-benzothiophen-7-yl]-1H-pyrazole-4-carboxamide] it was 91%. On the same count and under the same terms, the value for `Cc1nn(-c2cccc3cc(Cc4cc(F)cc(F)c4)sc23)c(C)c1C(=O)NCC(N)=O` [Example 101, N-(2-amino-2-oxoethyl)-1-[2-(3,5-difluorobenzyl)-1-benzothiophen-7-yl]-3,5-dimethyl-1H-pyrazole-4-carboxamide] was 96%; that for `Cc1nn(-c2cccc3nn(Cc4cc(F)cc(Cl)c4)cc23)c(C)c1C(=O)NCCO` [Example 82, 1-[2-(3-chloro-5-fluorobenzyl)-2H-indazol-4-yl]-N-(2-hydroxyethyl)-3,5-dimethyl-1H-pyrazole-4-carboxamide] was 105%; that for `Cc1cccc(Cc2cc3cccc(-n4nc(C)c(C(N)=O)c4C)c3s2)c1` [Example 95, 3,5-dimethyl-1-[2-(3-methylbenzyl)-1-benzothiophen-7-yl]-1H-pyrazole-4-carboxamide] was 95%.

`Cc1nn(-c2cccc3nn(Cc4cccc(C(F)(F)F)c4)cc23)c(C)c1C(=O)NCC(N)=O` [Example 80, N-(2-amino-2-oxoethyl)-3,5-dimethyl-1-[2-[3-(trifluoromethyl)benzyl]-2H-indazol-4-yl]-1H-pyrazole-4-carboxamide]: the activity at 1 µM stood at 98%. Same read-out and setting: in the case of `Cn1nc(-c2cccc3cc(Cc4cccc(C(F)(F)F)c4)sc23)cc1C(=O)NCC(N)=O` [Example 110, N-(2-amino-2-oxoethyl)-1-methyl-3-[2-[3-(trifluoromethyl)benzyl]-1-benzothiophen-7-yl]-1H-pyrazole-5-carboxamide] it was 94%; in that of `Cc1nn(-c2ccc(F)c3cc(Cc4cccc(C(F)(F)F)c4)sc23)c(C)c1C(=O)NC1CC1` [Example 103, N-cyclopropyl-1-[4-fluoro-2-[3-(trifluoromethyl)benzyl]-1-benzothiophen-7-yl]-3,5-dimethyl-1 H-pyrazole-4-carboxamide], 97%; in that of `Cc1nc(-c2cccc3cc(Cc4cccc(C(F)(F)F)c4)sc23)sc1C(N)=O` [Example 36, 4-methyl-2-[2-[3-(trifluoromethyl)benzyl]-1-benzothiophen-7-yl]-1,3-thiazole-5-carboxamide], 96%.

Consider `Cc1c(C(=O)NCC(N)=O)c(CO)nn1-c1cccc2cc(Cc3cccc(C(F)(F)F)c3)sc12` [Example 68, N-(2-amino-2-oxoethyl)-3-(hydroxymethyl)-5-methyl-1-[2-[3-(trifluoromethyl)benzyl]-1-benzothiophen-7-yl]-1H-pyrazole-4-carboxamide], for which the activity at 1 µM is 88%. On the same count and under the same terms, in the case of `COCCNC(=O)c1c(C)nn(-c2cccc3cc(Cc4cccc(C(F)(F)F)c4)sc23)c1CO` [Example 66, 5-(hydroxymethyl)-N-(2-methoxyethyl)-3-methyl-1-[2-[3-(trifluoromethyl)benzyl]-1-benzothiophen-7-yl]-1H-pyrazole-4-carboxamide] it was 89%.

Regarding `Cc1nn(-c2cccc3cc(Cc4cc(F)cc(F)c4)sc23)c(C)c1C(N)=O` [Example 100, 1-[2-(3,5-difluorobenzyl)-1-benzothiophen-7-yl]-3,5-dimethyl-1H-pyrazole-4-carboxamide], the activity at 1 µM was found to be 104%.

Staying with this assay, now noted: concentration of the test compound at which it shows 50% activity; human GPR52-expressing CHO(dhfr-) cells; read-out: GPR52 agonist activity EC50.
`Cc1nc(-c2cccc3nn(Cc4cccc(C(F)(F)F)c4)cc23)sc1C(N)=O` [Example 41, 4-methyl-2-[2-[3-(trifluoromethyl)benzyl]-2H-indazol-4-yl]-1,3-thiazole-5-carboxamide]: the EC50 turned out to be 49 nM.

Regarding `Cn1nc(-c2cccc3cc(Cc4cccc(C(F)(F)F)c4)sc23)cc1C(=O)NCCO` [Example 111, N-(2-hydroxyethyl)-1-methyl-3-[2-[3-(trifluoromethyl)benzyl]-1-benzathiophen-7-yl]-1H-pyrazole-5-carboxamide], the EC50 came out at 38 nM.

`Cc1nn(-c2cccc3oc(Cc4cccc(C(F)(F)F)c4)cc23)c(C)c1C(=O)NCCO` [Example 75, N-(2-hydroxyethyl)-3,5-dimethyl-1-[2-[3-(trifluoromethyl)benzyl]-1-benzofuran-4-yl]-1H-pyrazole-4-carboxamide]: the EC50 was determined as 30 nM. The same measure, in the same setting: in the case of `Cc1nn(-c2ccc(F)c3cc(Cc4cccc(C(F)(F)F)c4)sc23)c(CO)c1C(=O)NCCO` [Example 71, 1-[4-fluoro-2-[3-(trifluoromethyl)benzyl]-1-benzothiophen-7-yl]-N-(2-hydroxyethyl)-5-(hydroxymethyl)-3-methyl-1H-pyrazole-4-carboxamide] it was 27 nM. On the same count and under the same terms, the value for `Cc1c(C(=O)NCC(N)=O)c(CO)nn1-c1cccc2cc(Cc3cccc(C(F)(F)F)c3)sc12` [Example 68, N-(2-amino-2-oxoethyl)-3-(hydroxymethyl)-5-methyl-1-[2-[3-(trifluoromethyl)benzyl]-1-benzothiophen-7-yl]-1H-pyrazole-4-carboxamide] was 170 nM.
